Measured values: US20110190274A1, “SALT OF, AND PROCESSES FOR THE PREPARATION OF, 1-ISOPROPYL-4-HEXAHYDRO-1H-1,4-DIAZEPINE” (GLAXO GROUP LIMITED, priority 2008, published 2011)
Structures can show the parent of a compound that is named as a salt. Where two headings read alike, the source gives them in different places.

Key:
rats = details: certain oral doses; cited from earlier work
histamine H3 receptor [1] = molecular target: T1, histamine H3 receptor (Rattus norvegicus, UniProt Q9QYN8); details: following oral administration to the rat; cited from earlier work
T1 construct: from tissue; host or cells: rat cortex

[2] = Gravimetric vapour sorption (GVS), water sorption/desorption isotherm at varying relative humidity; type: physicochemical; details: for water reversibly adsorbed and/or absorbed, and/or desorbed (GVS): relative to minimum mass; for weight gain relative to the minimum mass at 0% RH (GVS) / weight gain cf. minimum mass (GVS): 25° C.
Method: Gravimetric vapour sorption (GVS) data were acquired on a Hiden IGA-Sorp analyser model (available from Hiden Isochema Ltd., 231 Europa Boulevard, Gemini Business Park, Warrington WA5 7TN, United Kingdom), generating a full sorption/desorption isotherm using water vapour perfusion at 25° C. under nitrogen gas and at varying relative humidities (RH).
23 milligrams of a sample of the crystalline Form 1 of 1-isopropyl-4-{[4-(tetrahydro-2H-pyran-4-yloxy)phenyl]carbonyl}hexahydro-1H-1,4-diazepine mono-maleate prepared in Example 4 were placed into a clean and dry tared sample mesh pan and weighed using the IGA-Sorp internal balance.
(i) starting from about 30% RH and increasing to about 90% RH in increments of about 10% RH (results shown as the solid line in the middle and on the right of FIG. 5), and then (ii) decreasing from about 90% RH to 0% RH in increments of about 10% RH (results shown as the dotted line in FIG. 5), and then (iii) increasing from 0% RH to about 30% RH, in increments of about 5% RH up to ca. 10% RH, and then in increments of about 10% RH from ca. 10% to ca. 30% RH (results shown as the solid line on the left of FIG. 5).
The weight of the sample was recorded after each ca. 10% RH increment. The point of equilibrium, after each ca. 10% RH increment, was automatically determined using a 97% asymptote setting.
Gravimetric Vapour Sorption (GVS) data, on the solid 1-isopropyl-4-{[4-(tetrahydro-2H-pyran-4-yloxy)phenyl]carbonyl}hexahydro-1H-1,4-diazepine hydrochloride from Example 2, Part C (the “kinetic” solid hydrochloride salt produced by fast crystallisation, and before purification by recrystallisation), were acquired on a DVS-1 SMS model (available from Surface Measurement System (SMS)), generating a full sorption/desorption isotherm using water vapour perfusion at 25° C. under nitrogen gas and at varying relative humidities (RH).
22 milligrams of the specified solid hydrochloride salt sample were placed into a clean and dry tared sample glass pan and weighed using the DVS-1 internal balance.
(i) starting from about 30% RH and increasing to about 90% RH in increments of about 10% RH (results shown as the line in the middle and on the right of FIG. 6, going from ca. 7-8% weight gain cf. minimum mass at ca. 30% RH, to ca. 14-15% weight gain cf. minimum mass at ca. 90% RH), and then (ii) decreasing from about 90% RH to 0% RH in increments of about 10% RH (results shown as the line in FIG. 6, starting from ca. 14-15% weight gain cf. minimum mass at ca. 90% RH, going towards the left almost horizontally to ca. 14% weight gain at ca. 30% RH, and then going rapidly down to 0% weight gain at 0% RH), and then (iii) increasing from 0% RH to about 30% RH in increments of about 10% RH (results shown as the line on the bottom left of FIG. 6, going from 0% weight gain at 0% RH to about 2% weight gain at ca. 30% RH).
The weight of the sample was recorded after each ca. 10% RH increment. The point of equilibrium was automatically determined using a 0.02 dm/dt setting.

[3] = Hygroscopicity and stability of the solid diazepine intermediate salts in air; type: physicochemical; details: for hygroscopicity of the solid: air at normal humidities, normal relative humidity (e.g. ca. 30%) at 25° C.
Source text: (i) The use of 1-isopropyl-hexahydro-1H-1,4-diazepine bis-trifluoroacetate allows the avoidance of the use of toxic dioxane in the preparation of 1-(isopropyl)-hexahydro-1H-1,4-diazepine dihydrochloride (from the BOC-protected precursor e.g. Intermediate 1), which preparation typically (see e.g. Intermediate 2 herein) uses HCl (e.g. 4M HCl) in dry dioxane (to avoid the water present in aqueous hydrochloric acid) in order to obtain solid 1-(isopropyl)hexahydro-1H-1,4-diazepine dihydrochloride. […] This hygroscopicity makes it difficult to quantify and weigh the dihydrochloride salt for the coupling reaction, and also can lead to the presence of undesired water in the coupling reaction (e.g. with DCI).

rodent = details: literature reports; cited from earlier work
histamine H3 receptor [4] = molecular target: T2, histamine H3 receptor (Homo sapiens, UniProt Q9Y5N1); assay: histamine H3 functional antagonist assay using membrane prepared from cultured H3 cells; type: biochemical
T2 construct: host or cells: cultured H3 cells (membranes)
Method: 1-Isopropyl-4-{[4-(tetrahydro-2H-pyran-4-yloxy)phenyl]carbonyl}hexahydro-1H-1,4-diazepine hydrochloride was tested using substantially the histamine H3 functional antagonist assay disclosed on pages 47-49, and in particular page 48 line 26 to page 49 line 7, of WO 2009/030716 A1 (Glaxo Group Limited). The result is expressed as a functional pKi (fpKi) value. A functional pKi is the negative logarithm of the antagonist equilibrium dissociation constant as determined in the H3 functional antagonist assay using membrane prepared from cultured H3 cells. The result given is an average of a number of experiments.

[5] = Karl Fischer analysis of water content; type: physicochemical; details: normal United Kingdom room humidity
Method: A Karl Fischer analysis of water content was carried out on the crystalline Form 1 mono-maleate salt prepared in Example 4 (at normal United Kingdom room humidity). This Karl Fischer analysis reported a water content of less than 0.1% w/w.

[6] = across the 0-90% relative humidity range at 25° C. under nitrogen

T2 sequence (Q9Y5N1 whole entry): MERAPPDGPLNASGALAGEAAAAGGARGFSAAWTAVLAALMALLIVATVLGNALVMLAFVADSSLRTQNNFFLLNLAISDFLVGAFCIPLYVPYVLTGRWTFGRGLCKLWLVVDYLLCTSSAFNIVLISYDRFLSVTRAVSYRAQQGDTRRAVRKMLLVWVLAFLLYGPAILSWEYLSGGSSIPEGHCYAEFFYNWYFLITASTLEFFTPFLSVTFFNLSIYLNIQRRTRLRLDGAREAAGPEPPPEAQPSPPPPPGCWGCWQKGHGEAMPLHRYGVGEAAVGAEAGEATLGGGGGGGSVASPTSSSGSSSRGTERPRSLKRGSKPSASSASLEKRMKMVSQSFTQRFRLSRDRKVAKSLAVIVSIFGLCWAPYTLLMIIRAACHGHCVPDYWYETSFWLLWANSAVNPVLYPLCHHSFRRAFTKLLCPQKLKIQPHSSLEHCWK
T1 sequence (Q9QYN8 whole entry): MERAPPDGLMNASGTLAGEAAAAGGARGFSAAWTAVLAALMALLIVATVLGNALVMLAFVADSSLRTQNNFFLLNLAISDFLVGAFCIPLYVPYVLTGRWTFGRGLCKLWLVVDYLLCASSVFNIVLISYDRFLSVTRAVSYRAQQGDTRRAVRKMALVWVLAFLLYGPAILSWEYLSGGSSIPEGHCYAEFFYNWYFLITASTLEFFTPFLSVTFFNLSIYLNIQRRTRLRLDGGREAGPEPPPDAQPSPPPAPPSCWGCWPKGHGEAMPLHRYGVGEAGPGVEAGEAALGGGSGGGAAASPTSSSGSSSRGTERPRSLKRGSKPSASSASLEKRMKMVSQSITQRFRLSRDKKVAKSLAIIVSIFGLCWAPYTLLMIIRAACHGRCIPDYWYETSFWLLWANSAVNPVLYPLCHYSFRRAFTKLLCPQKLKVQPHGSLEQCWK

CNC(=O)c1ccc(Oc2ccc3c(c2)CCN(C2CCC2)CC3)nc1 [GSK189254]
performance in cognition paradigms (rats): improved performance | ex vivo binding in the rat cortex (histamine H3 receptor [1]): inhibited

CC(C)N1CCCN(C(=O)c2ccc(OC3CCOCC3)cc2)CC1 [Example 2 Part A, 1-Isopropyl-4-{[4-(tetrahydro-2H-pyran-4-yloxy)phenyl]carbonyl}hexahydro-1H-1,4-diazepine]
water reversibly adsorbed and/or absorbed, and/or desorbed (GVS) [2, 6]: 0.4-0.5 % w/w

CC(C)N1CCCNCC1.Cl.Cl [Intermediate 2, 1-Isopropyl-hexahydro-1H-1,4-diazepine dihydrochloride]
hygroscopicity of the solid [3]: very hygroscopic

O=C(c1ccc(OCCCc2cnc[nH]2)cc1)C1CC1 [ciproxifan]
cognitive effect in rodent models (rodent): cognitive enhancing properties

CC(C)N1CCCN(C(=O)c2ccc(OC3CCOCC3)cc2)CC1.Cl [Example 2 Part C, 1-Isopropyl-4-{[4-(tetrahydro-2H-pyran-4-yloxy)phenyl]carbonyl}hexahydro-1H-1,4-diazepine hydrochloride]
Ki (histamine H3 receptor [4]; 12 experiments, read-out: range of measured fpKi values): 0.501 to 20 nM | Ki (histamine H3 receptor [4]; mean of 12 experiments, read-out: functional pKi (fpKi), H3 antagonism (converted)): ~5.01 nM | water sorption compared with crystalline Form 1 mono-maleate (GVS) [2, 6]: higher quantities of water | water reversibly adsorbed and/or absorbed, and/or desorbed (GVS) [2, 6]: 14-15 % w/w | weight gain relative to the minimum mass at 0% RH (GVS) ([2]; at about 30% RH, start of first sorption): 7-8 % w/w | weight gain relative to the minimum mass at 0% RH (GVS) ([2]; at about 90% RH, end of first sorption): 14-15 % w/w | weight gain cf. minimum mass (GVS) ([2]; at ca. 30% RH on desorption from ca. 90% RH): ca. 14% | weight gain cf. minimum mass (GVS) ([2]; at ca. 30% RH on re-sorption from 0% RH): about 2%

NC(=NCc1ccc(Cl)cc1)SCCCc1cnc[nH]1 [clobenpropit]
cognitive effect in rodent models (rodent): cognitive enhancing properties

S=C(NC1CCCCC1)N1CCC(c2cnc[nH]2)CC1 [thioperamide]
cognitive effect in rodent models (rodent): cognitive enhancing properties

CC(C)(C)CCC#C[C@@H]1C[C@H]1c1c[nH]cn1 [GT-2331]
cognitive effect in rodent models (rodent): cognitive enhancing properties

CC(C)N1CCCN(C(=O)c2ccc(OC3CCOCC3)cc2)CC1.O=C(O)/C=C\C(=O)O [Example 4, 1-Isopropyl-4-{[4-(tetrahydro-2H-pyran-4-yloxy)phenyl]carbonyl}hexahydro-1H-1,4-diazepine mono-maleate salt (crystalline Form 1)]
water content (Karl Fischer) [5]: less than 0.1 % w/w

CC(C)N1CCCNCC1 [Intermediate 3, 1-Isopropyl-hexahydro-1H-1,4-diazepine bis-trifluoroacetate salt]
stability of the solid [3]: long-term stability | hygroscopicity of the solid [3]: substantially non-hygroscopic
